{"source": "patent US5935606A", "about": "“Reversing excitotoxic CNS damage by cellular implantation” (priority 1995, dated 1999)", "key": {"NMDA receptor [1]": {"tested_on": "NMDA receptor", "experiment": "NMDA-induced mechanical hyperalgesia (Randall-Selitto test) in rats with spinal subarachnoid transplants", "type": "in vivo, rat", "conditions": "for effect of antagonist pretreatment on NMDA dose-response curve, noxious mechanical stimuli, compared to saline pretreatment: adrenal medullary transplanted animals, s.c. 20 min prior to NMDA (2.5, 5.0, 10.0 nmol), naloxone 2.0 mg/kg, phentolamine 10.0 mg/kg", "protocol": "Experimental procedures were approved and carried out in accordance the Guidelines of the Animal Care Committee, University of Illinois at Chicago. Male Sprague-Dawley rats weighing 325-375 g (Sasco, Madison, Wis.) at the beginning of the study were used as both graft donors and recipients. Graft recipients were anesthetized (Nembutal, 40 mg/kg, i.p., supplemented as necessary) and implanted with intrathecal catheters according to methods described by Yaksh and Rudy [T. L. Yaksh and T. A. Rudy, Physiol. Behav., 17:1031-1036 (1976)]. Catheters were made of PE10 tubing with a knot sealed with dental acrylic at 7.5 cm. The catheters were threaded through a slit in the atlanto-occipital membrane to the lumbar spinal subarachnoid space, and the free ends were anchored to the skull using cyanoacrylate. Donor adrenal medullary tissue was dissected from cortical tissue and cut into small pieces (<0.5 cm^3). Adrenal medullary tissue from two adrenal glands was used as this amount was shown in previous studies to produce significant antinociception using several behavioral tests [A. T. Hama and J. Sagen, Pain, 52:223-231 (1993); J. Sagen et al., Pain, 42:69-79 (1990); H. Wang and J. Sagen, J. Neural Transplant. Plastic., 5:49-64 (1994)]. Control animals received equal volumes of striated muscle tissue from donors. […]\n(§1) Animals were allowed to recover from surgical procedures for two weeks prior to commencement of behavioral testing. Responses to noxious and innocuous stimuli were determined using three tests sequentially: the Hargreaves model for thermal hyperalgesia [K. M. Hargreaves et al., Pain, 32:223-231 (1988)], the Randall-Selitto test for mechanical hyperalgesia, and von Frey thresholds for tactile allodynia. […] The apparatus automatically terminates at a scale reading of 25 (=1000 g). […]\n(§2) The first group of animals was used in order to determine the time course and dose-responsiveness to intrathecally injected NMDA. […] Baseline responses to all three tests were assessed at the beginning of each test day prior to drug injection. […]"}, "NMDA receptor [2]": {"tested_on": "NMDA receptor", "experiment": "NMDA-induced thermal hyperalgesia (Hargreaves paw withdrawal latency) in rats with spinal subarachnoid transplants", "type": "in vivo, rat", "conditions": "for effect of antagonist pretreatment on NMDA dose-response curve, noxious thermal stimuli, compared to saline pretreatment: adrenal medullary transplanted animals, s.c. 20 min prior to NMDA (2.5, 5.0, 10.0 nmol), naloxone 2.0 mg/kg, phentolamine 10.0 mg/kg", "protocol": "Experimental procedures were approved and carried out in accordance the Guidelines of the Animal Care Committee, University of Illinois at Chicago. Male Sprague-Dawley rats weighing 325-375 g (Sasco, Madison, Wis.) at the beginning of the study were used as both graft donors and recipients. Graft recipients were anesthetized (Nembutal, 40 mg/kg, i.p., supplemented as necessary) and implanted with intrathecal catheters according to methods described by Yaksh and Rudy [T. L. Yaksh and T. A. Rudy, Physiol. Behav., 17:1031-1036 (1976)]. Catheters were made of PE10 tubing with a knot sealed with dental acrylic at 7.5 cm. The catheters were threaded through a slit in the atlanto-occipital membrane to the lumbar spinal subarachnoid space, and the free ends were anchored to the skull using cyanoacrylate. Donor adrenal medullary tissue was dissected from cortical tissue and cut into small pieces (<0.5 cm^3). Adrenal medullary tissue from two adrenal glands was used as this amount was shown in previous studies to produce significant antinociception using several behavioral tests [A. T. Hama and J. Sagen, Pain, 52:223-231 (1993); J. Sagen et al., Pain, 42:69-79 (1990); H. Wang and J. Sagen, J. Neural Transplant. Plastic., 5:49-64 (1994)]. Control animals received equal volumes of striated muscle tissue from donors. Graft tissue was implanted in the spinal subarachnoid space via laminectomy at the level of the lumbar enlargement as described previously [J. Sagen et al., Brain Res., 384:189-194 (1986); J. Sagen et al., Pain, 42:69-79 (1990)]. Following surgical procedures, musculature was sutured (4-0 silk), and the skin closed with wound clips. Animals were housed individually and allowed food and water ad libitum.\nas §1, with “allodynia. To assess response to a noxious thermal stimulus, rats were placed on an elevated glass floor beneath an inverted clear plastic cage, and a radiant heat source beneath the glass was aimed at the plantar surface of the hindpaw. The onset of light activated a timer which was terminated by a hindpaw withdrawal response.” for “allodynia.”\nas §2"}, "NMDA receptor [3]": {"tested_on": "NMDA receptor", "experiment": "NMDA-induced tactile allodynia (von Frey thresholds) in rats with spinal subarachnoid transplants", "type": "in vivo, rat", "conditions": "adrenal medullary transplanted animals; s.c. 20 min prior to NMDA (2.5, 5.0, 10.0 nmol); naloxone 2.0 mg/kg, phentolamine 10.0 mg/kg", "protocol": "Experimental procedures were approved and carried out in accordance the Guidelines of the Animal Care Committee, University of Illinois at Chicago. Male Sprague-Dawley rats weighing 325-375 g (Sasco, Madison, Wis.) at the beginning of the study were used as both graft donors and recipients. Graft recipients were anesthetized (Nembutal, 40 mg/kg, i.p., supplemented as necessary) and implanted with intrathecal catheters according to methods described by Yaksh and Rudy [T. L. Yaksh and T. A. Rudy, Physiol. Behav., 17:1031-1036 (1976)]. Catheters were made of PE10 tubing with a knot sealed with dental acrylic at 7.5 cm. […]\nas §1, §2"}, "NMDA receptors [4]": {"biological_target": "NMDA receptors", "experiment": "[3H]CGP-39653 saturation binding, spinal cord membranes", "conditions": "normal rat whole spinal cord; one-site binding", "protocol": "(§3) Changes in NMDA receptor levels were determined at three weeks following nerve injury (one week following transplantation), as a marked distinction in responses to sensory stimuli between adrenal medullary and control transplanted animals can be made at this time point. […] [^3 H]CGP-39653 (D,L-(E)-2-amino-4-propyl-5-phosphono-3-pentenoate), a selective high-affinity competitive antagonist at NMDA receptors, was used to label the binding sites. In preliminary experiments, binding characteristics of this ligand were determined in the rat spinal cord. Saturation assays were performed on whole spinal cord tissue, and the results compared to those obtained in cortical membranes. NMDA binding sites were analyzed using previously described procedures with slight modification [M. A. Sills et al., Eur. J. Pharmacol., 192:19-24 (1991)]. Animals were decapitated and the spinal cords were rapidly extruded with saline pressure. […] This volume of tissue corresponded to approximately 110 μg of protein as determined using the Bradford method (BioRad, Richmond, Calif.). […] Nonspecific binding was determined in parallel tubes containing 100 mM L-glutamiate. […] Radioactivity was counted with a Beckman 3270 scintillation counter at 48-52% efficiency. Estimates of binding parameters were determined using the program LIGAND [P. J. Munson and D. Rodbard, Anal. Biochem., 197:220-239 (1980)]."}, "NMDA receptors [5]": {"biological_target": "NMDA receptors", "experiment": "[3H]CGP-39653 saturation binding, cortical membranes", "conditions": "normal rat cortex; one-site binding", "protocol": "as §3"}}, "data": [{"smiles": "C=CCN1CC[C@]23c4c5ccc(O)c4O[C@H]2C(=O)CC[C@@]3(O)[C@H]1C5", "note": "[naloxone]", "values": [{"measurement": "effect of antagonist pretreatment on NMDA dose-response curve, noxious mechanical stimuli, compared to saline pretreatment", "setting": "NMDA receptor [1]", "value": "no effect"}, {"measurement": "effect of antagonist pretreatment on NMDA dose-response curve, noxious thermal stimuli, compared to saline pretreatment", "setting": "NMDA receptor [2]", "value": "no effect"}, {"measurement": "effect of antagonist pretreatment on NMDA dose-response curve, innocuous tactile stimuli, compared to saline pretreatment", "setting": "NMDA receptor [3]", "value": "no effect"}]}, {"smiles": "CN[C@H](CC(=O)O)C(=O)O", "note": "[NMDA, N-methyl-D-aspartate]", "values": [{"measurement": "time of peak effect, mechanical hyperalgesia", "setting": "NMDA receptor [1]; intrathecal NMDA", "value": 30, "unit": "min"}, {"measurement": "time to significant thermal hyperalgesia in control animals", "setting": "NMDA receptor [2]; 5 nmol NMDA i.t., control transplanted animals, P<0.05", "value": "≤ 5", "unit": "min"}, {"measurement": "time of peak effect, thermal hyperalgesia", "setting": "NMDA receptor [2]; intrathecally administered NMDA, all cases", "value": 30, "unit": "min"}]}, {"smiles": "CCC/C(=C\\C(N)C(=O)O)CP(=O)(O)O", "note": "(racemic) [[^3 H]CGP-39653, D,L-(E)-2-amino-4-propyl-5-phosphono-3-pentenoate]", "values": [{"measurement": "Kd", "setting": "NMDA receptors [4]", "value": "12.9 ± 1.8", "unit": "nM"}, {"measurement": "Kd", "setting": "NMDA receptors [5]", "value": 15.4, "unit": "nM"}]}, {"smiles": "Cc1ccc(N(CC2=NCCN2)c2cccc(O)c2)cc1", "note": "[phentolamine]", "values": [{"measurement": "effect of antagonist pretreatment on NMDA dose-response curve, noxious mechanical stimuli, compared to saline pretreatment", "setting": "NMDA receptor [1]", "value": "significantly shifted the dose-response curves downward"}, {"measurement": "effect of antagonist pretreatment on NMDA dose-response curve, noxious thermal stimuli, compared to saline pretreatment", "setting": "NMDA receptor [2]", "value": "significantly shifted the dose-response curves downward"}, {"measurement": "effect of antagonist pretreatment on NMDA dose-response curve, innocuous tactile stimuli, compared to saline pretreatment", "setting": "NMDA receptor [3]", "value": "significantly shifted the dose-response curves downward"}]}]}
